Measurements published in patent EP0343398A2, “7-Substituted quinolone- and naphthyridinecarboxylic acid derivatives” (BAYER AG, priority 1988, dated 1989).
Converted amounts (≈) assume the structure as drawn.

What was measured:
Experiment in all cases: MIC determination (MHK-Werte), comparison with Ciprofloxacin
Format in all cases: cell-based
Staph. FK422 = tested on: Staph. FK422
Staph. 1756 = tested on: Staph. 1756
Enteroc. 27101 = tested on: Enteroc. 27101
Staph. 133 = tested on: Staph. 133
E.coli Neumann = settings: for MIC: Escherichia coli
Pseudo-monas Walter = tested on: Pseudo-monas Walter
Enterco. 9790 = tested on: Enterco. 9790
Pseudo-monas Ellsworth = tested on: Pseudo-monas Ellsworth

For `O=C(O)c1cn(C2CC2)c2cc(N3CCNCC3)c(F)cc2c1=O` [Ciprofloxacin, reference compound], which MIC (Staph. FK422) is on record?
Its MIC is 0.25 µg/mL (≈ 0.754 µM).

What about the MIC (Staph. 1756) of the same compound?
Its MIC is 0.25 µg/mL (≈ 0.754 µM).

And the MIC (Enteroc. 27101)?
The MIC was 0.25 µg/mL (≈ 0.754 µM).

And the MIC (Staph. 133)?
Its MIC is 0.25 µg/mL (≈ 0.754 µM).

What about the MIC (E.coli Neumann) of the same compound?
Its MIC is ≤ 0.015 µg/mL.

What about the MIC (Pseudo-monas Walter) of the same compound?
The MIC was 0.25 µg/mL (≈ 0.754 µM).

And the MIC (Enterco. 9790)?
Its MIC is 0.25 µg/mL (≈ 0.754 µM).

Which results are given for `O=C(O)c1cn(C2CC2)c2cc(-c3ccc4ccccc4c3)c(F)cc2c1=O` [Beispiel 14]?
MIC (Pseudo-monas Ellsworth): 0.25 µg/mL (≈ 0.67 µM); MIC (E.coli Neumann): 0.062 µg/mL (≈ 0.166 µM); MIC (Pseudo-monas Walter): 1 µg/mL (≈ 2.68 µM)

What does the source list for `O=C(O)c1cn(C2CC2)c2cc(-c3cccnc3)c(F)cc2c1=O` [Beispiel 16]?
MIC (E.coli Neumann): ≤ 0.015 µg/mL; MIC (Pseudo-monas Walter): 0.5 µg/mL (≈ 1.54 µM)

`NCc1ccc(-c2cc3c(cc2F)c(=O)c(C(=O)O)cn3C2CC2)cc1` [Beispiel 20, 7-(4-Aminomethylphenyl)-1-cyclopropyl-6-fluor-1,4-dihydro-4-oxo-3-chinolincarbonsäure] was tested. Which MIC (E.coli Neumann) did it give?
The MIC was ≤ 0.015 µg/mL.

For `CCOC(=O)c1cn(C2CC2)c2cc(-c3ccccc3)c(F)cc2c1=O` [Beispiel 1, 1-Cyclopropyl-6-fluor-1,4-dihydro-4-oxo-7-phenyl-3-chinolincarbonsäure-ethylester], which MHK-Werte (Staph. FK422) is on record?
Its MHK-Werte is ≤0,015 µg/ml.

What about the MHK-Werte (Staph. 1756) of the same compound?
Its MHK-Werte is 0,062 µg/ml.

And the MHK-Werte (Enteroc. 27101)?
The MHK-Werte was 0,062 µg/ml.

What about the MHK-Werte (Staph. 133) of the same compound?
Its MHK-Werte is 0,062 µg/ml.

What about the MHK-Werte (Pseudo-monas Ellsworth) of the same compound?
Its MHK-Werte is 0,25 µg/ml.

And the MHK-Werte (E.coli Neumann)?
The MHK-Werte was 0,062 µg/ml.

What about the MHK-Werte (Pseudo-monas Walter) of the same compound?
Its MHK-Werte is 0,5 µg/ml.

And the MHK-Werte (Enterco. 9790)?
Its MHK-Werte is 0,125 µg/ml.
